The record followed here is paper PMC10854894, “A New Benzo[6,7]oxepino[3,2-b] Pyridine Derivative Induces Apoptosis in Canine Mammary Cancer Cell Lines” (Animals : an Open Access Journal from MDPI, 2024).

pIC50: −log10 of the molar value. Read-outs that look alike come from different tables or passages of the source.

What all share (format): cell-based, canine
For assay [1], the system named is CMGT071020 cells. Briefly: Wound healing assay. Conditions: CMGT071020, 100 or 200 µM, 12 or 24 h, vs untreated control. How it is done:
(§1) The effect of MPOBA on cell migration was examined using a two-dimensional wound healing assay. The REM134 and CMGT071020 cell lines were seeded in a 6-well plate at a density of 5 × 10^5 cells/well and allowed to incubate for 24 h until they reached 100% confluence. The cells were scratched using a sterile 1 mL pipette tip and then treated with MPOBA at concentrations ranging from 0 to 200 µM for 24 h. Images of the scratches were captured at 0, 12, and 24 h post-treatment using phase-contrast microscopy. The wound areas were checked and measured using the NIS-Elements D imaging software program version 5.2 (Nikon, Tokyo, Japan). The cell migration ability was calculated as a percentage of the area covered by cells at 24 h compared to the initial wound area at 0 h. The experiments were repeated four times.

Assay [2] deals with REM134 cells. Briefly: Wound healing assay. Particulars: REM134, 100 or 200 µM, 12 or 24 h, vs untreated control. The procedure:
as §1

The test system of assay [3] is REM134 cells. In words: MTT cell proliferation/cytotoxicity assay. Conditions: Canis lupus familiaris, read-out: Half-Maximal Inhibitory Concentration (IC50). The procedure:
(§2) The cytotoxic effects of the three BZOP derivatives were studied via the 3-(4,5-Dimethyl-2-thiazolyl)-2,5-diphenyl-2H-tetrazolium bromide (MTT) assay. The REM134, CMGT071020, and MDCK cell lines were seeded at a density of 5 × 10^3 cells/well in 96-well plates and allowed to grow for 24 h. They were then treated with the three BZOP derivatives at various concentrations (0–300 µM) for 24 or 48 h, whereas cells treated with the culture medium containing 0.1% dimethyl sulfoxide (DMSO) were used as a negative control as the compounds were dissolved in DMSO. Subsequently, the cells were incubated with 10 µL of an MTT solution (Sigma, St. Louis, MO, USA) for 4 h. After the incubation with MTT solution, 100 µL of a solubilization solution was added to dissolve water-insoluble purple formazan crystals, and the plate was incubated overnight at 37 °C in 5% CO2. The absorbance of the formazan solution was measured using a Synergy H1 hybrid multi-mode microplate reader (BioTek, Winooski, VT, USA) at 570 nm. The experiment was conducted with four replicates, and the relative cell viability (%) of the treated cells was expressed as a percentage relative to the untreated control cells, which were considered to have 100% viability.

A further assay has as its system MDCK cells. In words: MTT cell proliferation/cytotoxicity assay. Particulars: Canis lupus familiaris, read-out: Half-Maximal Inhibitory Concentration (IC50). How it is done:
as §2

The subject of assay [4] is CMGT071020 cells. Briefly: Annexin V-FITC/PI apoptosis assay, flow cytometry. Conditions: 48 h; for percentage of total apoptosis: untreated 5.97%. How it is done:
(§3) The mode of cell death induced by MPOBA was evaluated using FITC Annexin V apoptosis detection kit I (BD Bioscience, San Jose, CA, USA) according to the manufacturer’s protocols. The REM134 and CMGT071020 cell lines were seeded at a density of 2 × 10^4 cells/well in a 12-well plate and allowed to grow for 24 h (60% confluency) prior to treatment with MPOBA at concentrations ranging from 0 to 200 µM for 48 h. After the incubation period, all adhering and floating cells were harvested and transferred into sterile centrifuge tubes. The cells were centrifuged at 400× g for 5 min at room temperature. The supernatant was aspirated, leaving approximately 50 µL of residual fluid in the tubes to avoid disturbing the pellets. FITC Annexin V (5 µL) and PI (5 µL) were added to the tubes containing cell pellets. The mixtures were gently vortexed and incubated for 15 min at room temperature in the dark. A binding buffer (400 µL) was added to each tube. A total of 20,000 events were acquired for each sample using a CytoFLEX flow cytometer (Beckman Coulter, Miami, FL, USA) within an hour. […] The experiment was performed with four replicates. The positive control was doxorubicin-treated CMC cells, while the negative control was 0.1% DMSO-treated CMC cells.

Assay [5] deals with REM134 cells. Briefly: Annexin V-FITC/PI apoptosis assay, flow cytometry. Particulars: 48 h; for percentage of total apoptosis: untreated 5.14%. How it is done:
as §3
For orientation: A flow cytometer gives signals particle by particle.

Take `Cc1ncccc1Oc1ccccc1C=O` [MPOBA, 2-((2-methylpyridin-3-yl)oxy)benzaldehyde]: the “cell migration (wound closure)” value in the assay on CMGT071020 cells [1] and in the assay with REM134 cells [2] was “significant decline in cell migration” each time. The pIC50 is 3.58 in the assay on REM134 cells [3] (REM134, 24 h); 4.06 in the assay on REM134 cells [3] (REM134, 48 h); under 3.52 in the assay on MDCK cells (24 h); 3.57 in the assay with MDCK cells (48 h). Also, the “percentage of total apoptosis” value in the assay with CMGT071020 cells [4] (CMGT071020, 100 µM) turned out to be 21.88%; with CMGT071020 cells [4] (CMGT071020, 200 µM), 27.07%; in the assay on REM134 cells [5] (REM134, 100 µM), 23.6%; in the assay with REM134 cells [5] (REM134, 200 µM), 28.75%. For the same compound, the viability at 50 µM amounted to 80.6% with CMGT071020 cells [4] (Canis lupus familiaris, CMGT071020, 50 μM, Figure 7A plot, read-out: viable cells) and 84.1% in the assay with REM134 cells [5] (Canis lupus familiaris, REM134, 50 μM, Figure 7A plot, read-out: viable cells). In addition, the viability at 100 µM was 72.9% in the assay on CMGT071020 cells [4] (Canis lupus familiaris, CMGT071020, 100 μM, Figure 7A plot, read-out: viable cells) and 75.5% in the assay on REM134 cells [5] (Canis lupus familiaris, REM134, 100 μM, Figure 7A plot, read-out: viable cells). The viability at 200 µM in the assay with CMGT071020 cells [4] (Canis lupus familiaris, CMGT071020, 200 μM, Figure 7A plot, read-out: viable cells) came out at 63.4%; in the assay on REM134 cells [5] (Canis lupus familiaris, REM134, 200 μM, Figure 7A plot, read-out: viable cells) it was 69.6%.
